# Patent US6914045B2, “Glycopeptide antibiotics” (Wyeth Holdings Corporation, priority 2001, dated 2005)
# Square brackets hold non-standard residues; d marks the D form. Peptide text beside a SMILES is read from it. * marks the point of attachment. ξ: configuration not given here. ξEnduracididine(βξ-OH,4'ξ) = N=C1NCC(C(O)C(N)C(=O)O)N1; X2 = OCC1OC(OC2C(CO)OC(*)C(O)C2O)C(O)C(O)C1O
# Key:
# Experiment in all cases: in vitro antibacterial evaluation, MIC by broth dilution
# Type in all cases: cell-based
# [1] = test system: Escherichia coli; details: 18 hours at 35° C.
# Procedure, shortened: (§1)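 Read-out: the lowest concentration at which the test strain fails to grow. Serial dilutions (64-0.06 μg/mL) in Muller-Hinton II […], 5×10^5 CFU/mL inoculum, NCCLS M7-A2 procedure.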
# [2] = test system: Streptococcus sp.; details: broth dilution, 18 hours at 35° C.
# Procedure, shortened: as §1
# [3] = test system: Enterococcus sp.; details: broth dilution, 18 hours at 35° C.
# Procedure, shortened: as §1
# [4] = test system: Staphylococcus sp.; details: broth dilution, 18 hours at 35° C.
# Procedure, shortened: as §1
smiles,measurement,setting,value
"N=C1NCC(C(O)C2NC(=O)C(Cc3ccc(OC4OC(CO)C(OC5OC(CO)C(O)C(O)C5O)C(O)C4O)cc3)NC(=O)C(Cc3ccccc3)NC(=O)CNC(=O)C(CO)NC(=O)C(C(O)C3CNC(=N)N3)NC2=O)N1 (stereo not drawn) [Example 296, Cyclo[glycylphenylalanyl-O-(4-O-hexopyranosylhexopyranosyl)tyrosyl-3-(2-iminoimidazolidin-4-yl)seryl-3-(2-iminoimidazolidin-4-yl)serylseryl]] (cyclo(GFY(X2)[ξEnduracididine(βξ-OH,4'ξ)][ξEnduracididine(βξ-OH,4'ξ)]S); configuration not given here)",MIC Escherichia coli (ATCC 25922),[1]; Escherichia coli (ATCC 25922),>128 µg/mL
same,MIC Escherichia coli (GC 4559),[1]; Escherichia coli (GC 4559),>128 µg/mL
same,MIC Escherichia coli (GC 4560),[1]; Escherichia coli (GC 4560),>128 µg/mL
same,MIC Streptococcus pneumoniae (ATCC 6301),[2]; strain ATCC 6301,>128 µg/mL
same,MIC Streptococcus pneumoniae (GC 1894),[2]; strain GC 1894,128 µg/mL
same,MIC Streptococcus pyogenes (GC 4563),[2]; strain GC 4563,>128 µg/mL
same,MIC Streptococcus agalactiae (GC 4564),[2]; strain GC 4564,>128 µg/mL
same,MIC Streptococcus pneumoniae (GC 4565),[2]; strain GC 4565,>128 µg/mL
same,MIC Enterococcus avium (GC 4558),[3]; Enterococcus avium (GC 4558),128 µg/mL
same,MIC Enterococcus faecalis (ATCC 29212),[3]; Enterococcus faecalis (ATCC 29212),>128 µg/mL
same,MIC Enterococcus faecalis (GC 4553),[3]; Enterococcus faecalis (GC 4553),>128 µg/mL
same,MIC Enterococcus faecalis (GC 4554),[3]; Enterococcus faecalis (GC 4554),>128 µg/mL
same,MIC Enterococcus faecalis (GC 6189),[3]; Enterococcus faecalis (GC 6189),>128 µg/mL
same,MIC Enterococcus faecium (GC 2243),[3]; Enterococcus faecium (GC 2243),>128 µg/mL
same,MIC Enterococcus faecium (GC 4556),[3]; Enterococcus faecium (GC 4556),>128 µg/mL
same,MIC Enterococcus faecium (GC 4557),[3]; Enterococcus faecium (GC 4557),128 µg/mL
same,MIC Enterococcus faecalis (ATCC 29212),[3]; strain ATCC 29212,>128 µg/mL
same,MIC Enterococcus faecalis (GC 2242),[3]; strain GC 2242,>128 µg/mL
same,MIC Enterococcus faecium (GC 2243),[3]; strain GC 2243,>128 µg/mL
same,MIC Enterococcus faecalis (GC 2691),[3]; strain GC 2691,>128 µg/mL
same,MIC Enterococcus faecalis (GC 3059),[3]; strain GC 3059,>128 µg/mL
same,MIC Enterococcus faecalis (GC 4552),[3]; strain GC 4552,>128 µg/mL
same,MIC Enterococcus faecalis (GC 4553),[3]; strain GC 4553,>128 µg/mL
same,MIC Enterococcus faecalis (GC 4554),[3]; strain GC 4554,>128 µg/mL
same,MIC Enterococcus faecium (GC 4556),[3]; strain GC 4556,>128 µg/mL
same,MIC Enterococcus faecium (GC 4557),[3]; strain GC 4557,128 µg/mL
same,MIC Enterococcus avium (GC 4558),[3]; strain GC 4558,128 µg/mL
same,MIC Enterococcus faecalis (GC 6189),[3]; strain GC 6189,>128 µg/mL
same,MIC Coagulase Negative Staphylococcus (GC 4547),[4],>128 µg/mL
same,MIC Coagulase Negative Staphylococcus (GC 4548),[4],>128 µg/mL
same,MIC Coagulase Negative Staphylococcus (GC 4549),[4],>128 µg/mL
same,MIC Coagulase Negative Staphylococcus (GC 4551),[4],>128 µg/mL
same,MIC Staphylococcus aureus (ATCC 29213),[4],>128 µg/mL
same,MIC Staphylococcus aureus (GC 1131),[4],>128 µg/mL
same,MIC Staphylococcus aureus (GC 3051),[4],>128 µg/mL
same,MIC Staphylococcus aureus (GC 3053),[4],>128 µg/mL
same,MIC Staphylococcus aureus (GC 4541),[4],>128 µg/mL
same,MIC Staphylococcus aureus (GC 4542),[4],>128 µg/mL
same,MIC Staphylococcus aureus (GC 4544),[4],>128 µg/mL
same,MIC Staphylococcus aureus (GC 4545),[4],>128 µg/mL
same,MIC Staphylococcus aureus-SMITH (GC 4543),[4],>128 µg/mL
same,MIC Staphylococcus haemolyticus (GC 4546),[4],>128 µg/mL
same,MIC Staphylococcus aureus (ATCC 29213),[4]; strain ATCC 29213,>128 µg/mL
same,MIC Staphylococcus aureus (GC 1131),[4]; strain GC 1131,>128 µg/mL
same,MIC Staphylococcus aureus (GC 3051),[4]; strain GC 3051,>128 µg/mL
same,MIC Staphylococcus aureus (GC 3053),[4]; strain GC 3053,>128 µg/mL
same,MIC Staphylococcus aureus (GC 4541),[4]; strain GC 4541,>128 µg/mL
same,MIC Staphylococcus aureus (GC 4542),[4]; strain GC 4542,>128 µg/mL
same,MIC Staphylococcus aureus (GC 4544),[4]; strain GC 4544,>128 µg/mL
same,MIC Staphylococcus aureus (GC 4545),[4]; strain GC 4545,>128 µg/mL
same,MIC Staphylococcus haemolyticus (GC 4546),[4]; strain GC 4546,>128 µg/mL
same,MIC Coagulase Negative Staphylococcus (GC 4547),[4]; strain GC 4547,>128 µg/mL
same,MIC Coagulase Negative Staphylococcus (GC 4548),[4]; strain GC 4548,>128 µg/mL
same,MIC Coagulase Negative Staphylococcus (GC 4549),[4]; strain GC 4549,>128 µg/mL
same,MIC Coagulase Negative Staphylococcus (GC 4551),[4]; strain GC 4551,>128 µg/mL
same,MIC Staphylococcus aureus-SMITH (GC 4543),[4]; strain SMITH GC 4543,>128 µg/mL
